{"source": "ChEMBL document CHEMBL1687806", "about": "“Susceptibility of treatment-naive hepatitis C virus (HCV) clinical isolates to HCV protease inhibitors” (Antimicrob Agents Chemother, 2010)", "key": {"[1]": {"system": "Hepatitis C virus", "test": "Antiviral activity against HCV1b Con1 harboring NS3 protease gene infected in human Huh7/Lunet cells assessed as inhibition of viral replication after 3 days by luciferase based transient-transfection assay", "type": "functional, organism-based, Hepacivirus hominis", "details": "Con1, Huh-7, 72 h"}, "[2]": {"system": "Hepatitis C virus", "test": "Ratio of EC50 for HCV1b harboring Q80K polymorphism in NS3 protease gene to EC50 for HCV1b harboring Q80Q polymorphism in NS3 protease gene", "type": "functional, Hepacivirus hominis, genotype 1b"}, "[3]": {"system": "Hepatitis C virus", "test": "Ratio of EC50 for wild type HCV1b harboring NS3 protease gene to EC50 for HCV1b harboring NS3 protease Q80K mutant", "type": "functional, Hepacivirus hominis, genotype 1b"}, "[4]": {"system": "Hepatitis C virus", "test": "Ratio of EC50 for wild type HCV1b harboring NS3 protease gene to EC50 for HCV1b harboring NS3 protease T54S mutant", "type": "functional, Hepacivirus hominis, genotype 1b"}, "[5]": {"system": "Hepatitis C virus", "test": "Ratio of EC50 for wild type HCV1b harboring NS3 protease gene to EC50 for HCV1b B13 harboring NS3 protease R26K, V46I, Q80L mutant", "type": "functional, Hepacivirus hominis, genotype 1b"}, "[6]": {"system": "Hepatitis C virus", "test": "Antiviral activity against HCV1b harboring Q80K polymorphism in NS3 protease gene infected in human Huh7/Lunet cells assessed as inhibition of viral replication after 3 days by luciferase based transient-transfection assay", "type": "functional, organism-based, Hepacivirus hominis", "details": "genotype 1b, Huh-7, 72 h"}, "[7]": {"system": "Hepatitis C virus", "test": "Ratio of EC50 for wild type HCV1b harboring NS3 protease gene to EC50 for HCV1b harboring NS3 protease Q80K, T54S mutant", "type": "functional, Hepacivirus hominis, genotype 1b"}, "[8]": {"system": "Hepatitis C virus", "test": "Ratio of EC50 for wild type HCV1b harboring NS3 protease gene to EC50 for HCV1b A25 harboring NS3 protease T40A, T54S, V55I, I64L, P67S, Q80K, Q88H, S90A, L153I mutant", "type": "functional, Hepacivirus hominis, genotype 1b"}, "[9]": {"system": "Hepatitis C virus", "test": "Ratio of EC50 for wild type HCV1b harboring NS3 protease gene to EC50 for HCV1b B10 harboring NS3 protease S7A, R26K, V48I, T54S mutant", "type": "functional, Hepacivirus hominis, genotype 1b"}, "[10]": {"system": "Hepatitis C virus", "test": "Antiviral activity against HCV1b harboring Q80Q polymorphism in NS3 protease gene infected in human Huh7/Lunet cells assessed as inhibition of viral replication after 3 days by luciferase based transient-transfection assay", "type": "functional, organism-based, Hepacivirus hominis", "details": "genotype 1b, Huh-7, 72 h"}}}
{"smiles": "CCCCCOc1ccc(NC(=S)NC(=O)c2cccnc2)cc1C(F)(F)F", "values": [{"measurement": "EC50", "setting": "[1]", "value": 28.2, "unit": "nM"}]}
{"smiles": "CC(C)(C)NC(=O)N[C@H](C(=O)N1C[C@H]2[C@@H]([C@H]1C(=O)NC(CC1CCC1)C(=O)C(N)=O)C2(C)C)C(C)(C)C", "note": "(stereo partly specified) [BOCEPREVIR]", "values": [{"measurement": "Ratio EC50", "setting": "[2]", "value": 0.4}, {"measurement": "Ratio EC50", "setting": "[3]", "value": 0.9}, {"measurement": "Ratio EC50", "setting": "[4]", "value": 4.7}, {"measurement": "Ratio EC50", "setting": "[5]", "value": 1}, {"measurement": "EC50", "setting": "[6]", "value": 91.5, "unit": "nM"}, {"measurement": "Ratio EC50", "setting": "[7]", "value": 1.7}, {"measurement": "EC50", "setting": "[1]", "value": 276, "unit": "nM"}, {"measurement": "Ratio EC50", "setting": "[8]", "value": 1.7}, {"measurement": "Ratio EC50", "setting": "[9]", "value": 9}, {"measurement": "EC50", "setting": "[10]", "value": 201, "unit": "nM"}]}
{"smiles": "CC(C)(C)OC(=O)N[C@H]1CCCCC/C=C\\[C@@H]2C[C@@]2(C(=O)NS(=O)(=O)C2CC2)NC(=O)[C@@H]2C[C@@H](OC(=O)N3Cc4cccc(F)c4C3)CN2C1=O", "note": "[DANOPREVIR]", "values": [{"measurement": "Ratio EC50", "setting": "[2]", "value": 1.7}, {"measurement": "Ratio EC50", "setting": "[3]", "value": 6.3}, {"measurement": "Ratio EC50", "setting": "[4]", "value": 1}, {"measurement": "Ratio EC50", "setting": "[5]", "value": 1.7}, {"measurement": "EC50", "setting": "[6]", "value": 0.62, "unit": "nM"}, {"measurement": "Ratio EC50", "setting": "[7]", "value": 5.3}, {"measurement": "EC50", "setting": "[1]", "value": 0.6, "unit": "nM"}, {"measurement": "Ratio EC50", "setting": "[8]", "value": 2.7}, {"measurement": "Ratio EC50", "setting": "[9]", "value": 1.2}, {"measurement": "EC50", "setting": "[10]", "value": 0.25, "unit": "nM"}]}
{"smiles": "COc1ccc2c(O[C@@H]3C[C@H]4C(=O)N[C@]5(C(=O)NS(=O)(=O)C6CC6)C[C@H]5/C=C\\CCCCN(C)C(=O)[C@@H]4C3)cc(-c3nc(C(C)C)cs3)nc2c1C", "note": "[SIMEPREVIR]", "values": [{"measurement": "Ratio EC50", "setting": "[2]", "value": 7.5}, {"measurement": "Ratio EC50", "setting": "[3]", "value": 10.9}, {"measurement": "Ratio EC50", "setting": "[4]", "value": 0.7}, {"measurement": "Ratio EC50", "setting": "[5]", "value": 1}, {"measurement": "EC50", "setting": "[6]", "value": 20.1, "unit": "nM"}, {"measurement": "Ratio EC50", "setting": "[7]", "value": 7.3}, {"measurement": "EC50", "setting": "[1]", "value": 3.3, "unit": "nM"}, {"measurement": "Ratio EC50", "setting": "[8]", "value": 10.8}, {"measurement": "Ratio EC50", "setting": "[9]", "value": 0.8}, {"measurement": "EC50", "setting": "[10]", "value": 2.7, "unit": "nM"}]}
{"smiles": "CCC[C@H](NC(=O)[C@@H]1[C@H]2CCC[C@H]2CN1C(=O)[C@@H](NC(=O)[C@@H](NC(=O)c1cnccn1)C1CCCCC1)C(C)(C)C)C(=O)C(=O)NC1CC1", "note": "[TELAPREVIR]", "values": [{"measurement": "Ratio EC50", "setting": "[2]", "value": 0.5}, {"measurement": "Ratio EC50", "setting": "[3]", "value": 1}, {"measurement": "Ratio EC50", "setting": "[4]", "value": 5.6}, {"measurement": "Ratio EC50", "setting": "[5]", "value": 1}, {"measurement": "EC50", "setting": "[6]", "value": 72, "unit": "nM"}, {"measurement": "Ratio EC50", "setting": "[7]", "value": 2.3}, {"measurement": "EC50", "setting": "[1]", "value": 377, "unit": "nM"}, {"measurement": "Ratio EC50", "setting": "[8]", "value": 1}, {"measurement": "Ratio EC50", "setting": "[9]", "value": 6.2}, {"measurement": "EC50", "setting": "[10]", "value": 176, "unit": "nM"}]}
{"smiles": "CC[C@@H]1C[C@]1(NC(=O)[C@@H]1C[C@@H]2CN1C(=O)[C@H](C(C)(C)C)NC(=O)OCC(C)(C)CCCCc1cccc3c1CN(C3)C(=O)O2)C(=O)NS(=O)(=O)C1CC1", "note": "[VANIPREVIR]", "values": [{"measurement": "Ratio EC50", "setting": "[2]", "value": 1.5}, {"measurement": "Ratio EC50", "setting": "[3]", "value": 6.6}, {"measurement": "Ratio EC50", "setting": "[4]", "value": 0.5}, {"measurement": "Ratio EC50", "setting": "[5]", "value": 1.5}, {"measurement": "EC50", "setting": "[6]", "value": 0.41, "unit": "nM"}, {"measurement": "Ratio EC50", "setting": "[7]", "value": 3.7}, {"measurement": "EC50", "setting": "[1]", "value": 0.7, "unit": "nM"}, {"measurement": "Ratio EC50", "setting": "[8]", "value": 2.2}, {"measurement": "Ratio EC50", "setting": "[9]", "value": 1.2}, {"measurement": "EC50", "setting": "[10]", "value": 0.27, "unit": "nM"}]}
